Patent publication US5593984A, “Cephalosporin derivatives” (Yuhan Corporation, priority 1992, dated 1997)
In brackets after ≈: the same amount, converted by molar mass.

Experiments:
Type in all cases: cell-based
[1] = test system: Ps. aeruginosa DY-2; test: MIC by agar dilution, Ps. aeruginosa DY-2; details: Pseudomonas aeruginosa, DY2, 17 h; Ps. aeruginosa DY-2; agar dilution, Mueller-Hinton agar; read-out: Minimal Inhibitory Concentration (MIC)
Description: (§1) These MIC values were determined by agar dilution method: that is, two-fold dilutions of each of the test compounds were made and dispersed in a Mueller-Hinton agar medium; standard test strain which had the 10^6 CFU (Colony Forming Unit) per ml was inoculated on the medium with microplanter (Toyo, Japan), and incubated at 35°-37° C. for 17±1 hours. The structures of Ceftazidime (CAZ) and Cefotaxime (CTX) which are used as control compounds are as follows: [drawing 12]

[2] = test system: P. vulgaris NCTC 8313; test: MIC by agar dilution, P. vulgaris NCTC 8313; details: Proteus vulgaris, NCTC8313, 17 h; P. vulgaris NCTC 8313; agar dilution, Mueller-Hinton agar; read-out: Minimal Inhibitory Concentration (MIC)
Description: as §1

[3] = test system: K. pneumoniae NCTC 9632; test: MIC by agar dilution, K. pneumoniae NCTC 9632; details: Klebsiella pneumoniae, NCTC9632, 17 h; K. pneumoniae NCTC 9632; agar dilution, Mueller-Hinton agar; read-out: Minimal Inhibitory Concentration (MIC)
Description: as §1

[4] = test system: S. epidermidis ATCC 12228; test: MIC by agar dilution, S. epidermidis ATCC 12228; details: Staphylococcus epidermidis, ATCC12228, 17 h; S. epidermidis ATCC 12228; agar dilution, Mueller-Hinton agar; read-out: Minimal Inhibitory Concentration (MIC)
Description: as §1

[5] = test system: B. subtilis ATCC 6633; test: MIC by agar dilution, B. subtilis ATCC 6633; details: Bacillus subtilis, ATCC6633, 17 h; B. subtilis ATCC 6633; agar dilution, Mueller-Hinton agar; read-out: Minimal Inhibitory Concentration (MIC)
Description: as §1

[6] = test system: M. morganii DY-1; test: MIC by agar dilution, M. morganii DY-1; details: Morganella morganii, DY1, 17 h; M. morganii DY-1; agar dilution, Mueller-Hinton agar; read-out: Minimal Inhibitory Concentration (MIC)
Description: as §1

[7] = test system: Staph. aureus Smith; test: MIC by agar dilution, Staph. aureus Smith; details: Staphylococcus aureus, 17 h, Mueller-Hinton agar, read-out: Minimal Inhibitory Concentration (MIC)
Description: as §1

[8] = test system: E. coli No. 29; test: MIC by agar dilution, E. coli No. 29; details: Escherichia coli, 17 h; E. coli No. 29; agar dilution, Mueller-Hinton agar; read-out: Minimal Inhibitory Concentration (MIC)
Description: as §1

[9] = test system: Staph. aureus C-57; test: MIC by agar dilution, Staph. aureus C-57; details: Staphylococcus aureus, C57, 17 h, Mueller-Hinton agar, read-out: Minimal Inhibitory Concentration (MIC)
Description: as §1

[10] = test system: E. coli NIHJ JC-2; test: MIC by agar dilution, E. coli NIHJ JC-2; details: Escherichia coli, NIHJJC2, 17 h; E. coli NIHJ JC-2; agar dilution, Mueller-Hinton agar; read-out: Minimal Inhibitory Concentration (MIC)
Description: as §1

[11] = test system: Staph. aureus C-5113; test: MIC by agar dilution, Staph. aureus C-5113; details: Staphylococcus aureus, C5113, 17 h, Mueller-Hinton agar, read-out: Minimal Inhibitory Concentration (MIC)
Description: as §1

[12] = test system: Ent. aerogenes IFO 12979; test: MIC by agar dilution, Ent. aerogenes IFO 12979; details: Klebsiella aerogenes, IFO12979, 17 h, Mueller-Hinton agar, read-out: Minimal Inhibitory Concentration (MIC)
Description: as §1

[13] = test system: Ent. cloacae IFO 13535; test: MIC by agar dilution, Ent. cloacae IFO 13535; details: Enterobacter cloacae, IFO13535, 17 h; Ent. cloacae IFO 13535; agar dilution, Mueller-Hinton agar; read-out: Minimal Inhibitory Concentration (MIC)
Description: as §1

[14] = test system: Prov. stuartii IFO 12930; test: MIC by agar dilution, Prov. stuartii IFO 12930; details: Providencia stuartii, IFO12930, 17 h, Mueller-Hinton agar, read-out: Minimal Inhibitory Concentration (MIC)
Description: as §1

[15] = test system: Staph. aureus ATCC 6538P; test: MIC by agar dilution, Staph. aureus ATCC 6538P; details: Staphylococcus aureus, ATCC6538P, 17 h; Staph. aureus ATCC 6538P; agar dilution, Mueller-Hinton agar; read-out: Minimal Inhibitory Concentration (MIC)
Description: as §1

[16] = test system: Ps. aeruginosa NCTC 10490; test: MIC by agar dilution, Ps. aeruginosa NCTC 10490; details: Pseudomonas aeruginosa, NCTC10490, 17 h, Mueller-Hinton agar, read-out: Minimal Inhibitory Concentration (MIC)
Description: as §1

[17] = test system: Staph. aureus C-5216; test: MIC by agar dilution, Staph. aureus C-5216; details: Staphylococcus aureus, C5216, 17 h, Mueller-Hinton agar, read-out: Minimal Inhibitory Concentration (MIC)
Description: as §1

[18] = test system: Ps. aeruginosa ATCC 10145; test: MIC by agar dilution, Ps. aeruginosa ATCC 10145; details: Pseudomonas aeruginosa, ATCC10145, 17 h, Mueller-Hinton agar, read-out: Minimal Inhibitory Concentration (MIC)
Description: as §1

[19] = test system: Ser. marcescens IFO 12648; test: MIC by agar dilution, Ser. marcescens IFO 12648; details: Serratia marcescens, IFO12648, 17 h; Ser. marcescens IFO 12648; agar dilution, Mueller-Hinton agar; read-out: Minimal Inhibitory Concentration (MIC)
Description: as §1

[20] = test system: E. coli DY-1; test: MIC by agar dilution, E. coli DY-1; details: Escherichia coli, DY1, 17 h; E. coli DY-1; agar dilution, Mueller-Hinton agar; read-out: Minimal Inhibitory Concentration (MIC)
Description: as §1

Structure (SMILES)	MIC [1] [µg/mL]	MIC [2] [µg/mL]	MIC [3] [µg/mL]	MIC [4] [µg/mL]	MIC [5] [µg/mL]	MIC [6] [µg/mL]	MIC [7] [µg/mL]	MIC [8] [ng/mL]	MIC [9] [µg/mL]	MIC [10] [µg/mL]	MIC [11] [µg/mL]	MIC [12] [µg/mL]	MIC [13] [µg/mL]	MIC [14] [µg/mL]	MIC [15] [µg/mL]	MIC [16] [µg/mL]	MIC [17] [µg/mL]	MIC [18] [µg/mL]	MIC [19] [µg/mL]	MIC [20] [ng/mL]
Nc1nc(/C(=N\O)C(=O)N[C@@H]2C(=O)N3C(C(=O)[O-])=C(C[n+]4ccn5cccc5c4)CS[C@H]23)cs1 [Ex. 7, 7-β-[(Z)-2-(2-aminothiazol-4-yl)-2-hydroxyiminoacetamido]-3-(pyrrolo[1,2-a]pyrazinium-2-yl)methyl-3-cephem-4-carboxylate]	25 (≈ 50 µM)	0.2 (≈ 0.4 µM)	0.1 (≈ 0.2 µM)	0.025 (≈ 0.05 µM)	0.2 (≈ 0.4 µM)	0.1 (≈ 0.2 µM)	0.39 (≈ 0.781 µM)	50 (≈ 0.1 µM)	25 (≈ 50 µM)	0.05 (≈ 0.1 µM)	0.39 (≈ 0.781 µM)	0.1 (≈ 0.2 µM)	0.39 (≈ 0.781 µM)	0.012 (≈ 0.024 µM)	0.1 (≈ 0.2 µM)	0.39 (≈ 0.781 µM)	0.39 (≈ 0.781 µM)	1.56 (≈ 3.12 µM)	0.1 (≈ 0.2 µM)	50 (≈ 0.1 µM)
CON=C(C(=O)NC1C(=O)N2C(C(=O)[O-])=C(C[n+]3ccn4c(SCCO)ccc4c3)CSC12)c1csc(N)n1 (stereo not drawn) [Ex. 8, 7-β-[(Z)-2-(2-aminothiazol-4-yl)-2-methoxyiminoacetamido]-3-[6-(2-hydroxyethylthio)pyrrolo[1,2-a]pyrazinium-2-yl]methyl-3-cephem-4-carboxylate]	3.13 (≈ 5.31 µM)	0.012 (≈ 0.0203 µM)	0.012 (≈ 0.0203 µM)	0.1 (≈ 0.17 µM)	0.1 (≈ 0.17 µM)	0.025 (≈ 0.0424 µM)	0.2 (≈ 0.339 µM)	≤ 6	25 (≈ 42.4 µM)	0.012 (≈ 0.0203 µM)	0.39 (≈ 0.661 µM)	0.012 (≈ 0.0203 µM)	1.56 (≈ 2.65 µM)	≤ 0.006	0.1 (≈ 0.17 µM)	0.2 (≈ 0.339 µM)	0.78 (≈ 1.32 µM)	0.78 (≈ 1.32 µM)	0.012 (≈ 0.0203 µM)	≤ 6
CCON=C(C(=O)NC1C(=O)N2C(C(=O)[O-])=C(C[n+]3ccn4c(SCCO)ccc4c3)CSC12)c1csc(N)n1 (stereo not drawn) [Ex. 9, 7-β-[(Z)-2-(2-aminothiazol-4-yl)-2-ethoxyiminoacetamido]-3-[6-(2-HYDROXYETHYLTHIO)PYRROLO[1,2-a]pyrazinium-2-yl]methyl-3-cephem-4-carboxylate]	3.13 (≈ 5.18 µM)	≤ 0.006	0.025 (≈ 0.0414 µM)	0.05 (≈ 0.0828 µM)	0.1 (≈ 0.166 µM)	0.012 (≈ 0.0199 µM)	0.1 (≈ 0.166 µM)	≤ 6	12.5 (≈ 20.7 µM)	0.025 (≈ 0.0414 µM)	0.39 (≈ 0.646 µM)	0.05 (≈ 0.0828 µM)	0.2 (≈ 0.331 µM)	0.025 (≈ 0.0414 µM)	0.1 (≈ 0.166 µM)	0.2 (≈ 0.331 µM)	0.78 (≈ 1.29 µM)	3.13 (≈ 5.18 µM)	0.05 (≈ 0.0828 µM)	≤ 6
Nc1nc(C(=NOCF)C(=O)NC2C(=O)N3C(C(=O)[O-])=C(C[n+]4ccn5c(SCCO)ccc5c4)CSC23)cs1 (stereo not drawn) [Ex. 10, 7-β-[(Z)-2-(2-aminothiazol-4-yl)-2-fluoromethoxyiminoacetamido]-3-[6-(2-hydroxyethylthio)pyrrolo[1,2-a]pyrazinium-2-yl]methyl-3-cephem-4-carboxylate]	3.13 (≈ 5.15 µM)	0.012 (≈ 0.0197 µM)	0.025 (≈ 0.0411 µM)	0.05 (≈ 0.0823 µM)	0.1 (≈ 0.165 µM)	0.012 (≈ 0.0197 µM)	0.1 (≈ 0.165 µM)	≤ 6	12.5 (≈ 20.6 µM)	0.025 (≈ 0.0411 µM)	0.39 (≈ 0.642 µM)	0.05 (≈ 0.0823 µM)	0.2 (≈ 0.329 µM)	≤ 0.006	0.1 (≈ 0.165 µM)	0.2 (≈ 0.329 µM)	0.78 (≈ 1.28 µM)	0.78 (≈ 1.28 µM)	0.012 (≈ 0.0197 µM)	≤ 6
CON=C(C(=O)NC1C(=O)N2C(C(=O)[O-])=C(C[n+]3ccn4c(Cl)ccc4c3)CSC12)c1csc(N)n1 (stereo not drawn) [Ex. 11, 7-β-[(Z)-2-(2-aminothiazol-4-yl)-2-methoxyiminoacetamido]-3-(6-chloropyrrolo[1,2-a]pyrazinium-2-yl)methyl-3-cephem-4-carboxylate]	3.13 (≈ 5.71 µM)	≤ 0.006	≤ 0.006	0.025 (≈ 0.0456 µM)	0.1 (≈ 0.182 µM)	≤ 0.006	0.39 (≈ 0.712 µM)	≤ 6	12.5 (≈ 22.8 µM)	≤ 0.006	0.78 (≈ 1.42 µM)	≤ 0.006	0.05 (≈ 0.0912 µM)	≤ 0.006	0.2 (≈ 0.365 µM)	0.39 (≈ 0.712 µM)	0.78 (≈ 1.42 µM)	0.78 (≈ 1.42 µM)	0.012 (≈ 0.0219 µM)	≤ 6
CCON=C(C(=O)NC1C(=O)N2C(C(=O)[O-])=C(C[n+]3ccn4c(Cl)ccc4c3)CSC12)c1csc(N)n1 (stereo not drawn) [Ex. 12, 7-β-[(Z)-2-(2-aminothiazol-4-yl)-2-ethoxyiminoacetamido]-3-(6-chloropyrrolo[1,2-a]pyrazinium-2-yl)methyl-3-cephem-4-carboxylate]	6.25 (≈ 11.1 µM)	0.012 (≈ 0.0214 µM)	0.025 (≈ 0.0445 µM)	0.05 (≈ 0.089 µM)	0.1 (≈ 0.178 µM)	0.025 (≈ 0.0445 µM)	0.39 (≈ 0.694 µM)	12 (≈ 0.0214 µM)	12.5 (≈ 22.2 µM)	0.05 (≈ 0.089 µM)	0.78 (≈ 1.39 µM)	0.025 (≈ 0.0445 µM)	0.39 (≈ 0.694 µM)	0.025 (≈ 0.0445 µM)	0.2 (≈ 0.356 µM)	0.39 (≈ 0.694 µM)	0.78 (≈ 1.39 µM)	1.56 (≈ 2.78 µM)	0.025 (≈ 0.0445 µM)	12 (≈ 0.0214 µM)
